Laboratory results published in US20180325914A1, “INCREASING STORAGE OF VITAMIN A, VITAMIN D AND/OR LIPIDS” (Salk Institute for Biological Studies, priority 2014, published 2018).

Test system: primary HSCs

Cc1sc2c(c1C)C(c1ccc(Cl)cc1)=N[C@@H](CC(=O)OC(C)(C)C)c1nnc(C)n1-2 [JQ1, (S)-tert-butyl 2-(4-(4-chlorophenyl)-2,3,9-trimethyl-6H-thieno[3,2-f][1,2,4]triazolo[4,3-a][1,4]diazepin-6-yl)acetate]
Ccnb2 value_2 (mRNA-Seq, sample Day_6_JQ1): 22.7753 | Ccnf value_2 (mRNA-Seq, sample Day_6_JQ1): 11.7934 | Cdc45 value_2 (mRNA-Seq, sample Day_6_JQ1): 7.419 | Cdca3 value_2 (mRNA-Seq, sample Day_6_JQ1): 31.4087 | Cdk1 value_2 (mRNA-Seq, sample Day_6_JQ1): 28.779 | Cdkn2c value_2 (mRNA-Seq, sample Day_6_JQ1): 16.1063 | Cend1 value_2 (mRNA-Seq, sample Day_6_JQ1): 7.615 | Cenpe value_2 (mRNA-Seq, sample Day_6_JQ1): 9.129 | Cenph value_2 (mRNA-Seq, sample Day_6_JQ1): 8.899 | Chaf1a value_2 (mRNA-Seq, sample Day_6_JQ1): 16.8473 | Ckap2l value_2 (mRNA-Seq, sample Day_6_JQ1): 18.5683 | Ckb value_2 (mRNA-Seq, sample Day_6_JQ1): 310.111 | Cks1b value_2 (mRNA-Seq, sample Day_6_JQ1): 113.98 | Colec11 value_2 (mRNA-Seq, sample Day_6_JQ1): 68.8593 | Cpt1c value_2 (mRNA-Seq, sample Day_6_JQ1): 30.5415 | Ctnnbip1 value_2 (mRNA-Seq, sample Day_6_JQ1): 14.2922 | Cyb5r3 value_2 (mRNA-Seq, sample Day_6_JQ1): 256.005 | Cyp1b1 value_2 (mRNA-Seq, sample Day_6_JQ1): 100.635 | D2Ertd750e value_2 (mRNA-Seq, sample Day_6_JQ1): 10.3027 | Dact3 value_2 (mRNA-Seq, sample Day_6_JQ1): 26.3749 | Dag1 value_2 (mRNA-Seq, sample Day_6_JQ1): 162.916 | Dcbld2 value_2 (mRNA-Seq, sample Day_6_JQ1): 73.5335 | Dcxr value_2 (mRNA-Seq, sample Day_6_JQ1): 36.0469 | Ddr2 value_2 (mRNA-Seq, sample Day_6_JQ1): 63.2059 | Diap3 value_2 (mRNA-Seq, sample Day_6_JQ1): 10.7413 | Dlgap5 value_2 (mRNA-Seq, sample Day_6_JQ1): 10.9428 | Dzip3 value_2 (mRNA-Seq, sample Day_6_JQ1): 8.399 | E2f1 value_2 (mRNA-Seq, sample Day_6_JQ1): 21.0746 | Elovl5 value_2 (mRNA-Seq, sample Day_6_JQ1): 65.5058 | Eno2 value_2 (mRNA-Seq, sample Day_6_JQ1): 9.68 | Ephb3 value_2 (mRNA-Seq, sample Day_6_JQ1): 16.6667 | Ephx1 value_2 (mRNA-Seq, sample Day_6_JQ1): 132.832 | Evc value_2 (mRNA-Seq, sample Day_6_JQ1): 10.4125 | Ext2 value_2 (mRNA-Seq, sample Day_6_JQ1): 87.8458 | Fam171b value_2 (mRNA-Seq, sample Day_6_JQ1): 12.8947 | Fbxo5 value_2 (mRNA-Seq, sample Day_6_JQ1): 11.9069 | Fignl1 value_2 (mRNA-Seq, sample Day_6_JQ1): 12.5326 | Foxm1 value_2 (mRNA-Seq, sample Day_6_JQ1): 15.7609 | Fscn1 value_2 (mRNA-Seq, sample Day_6_JQ1): 385.037 | Gas1 value_2 (mRNA-Seq, sample Day_6_JQ1): 80.3077 | Gmnn value_2 (mRNA-Seq, sample Day_6_JQ1): 19.8433 | Gpm6b value_2 (mRNA-Seq, sample Day_6_JQ1): 19.7607 | Gpx1 value_2 (mRNA-Seq, sample Day_6_JQ1): 332.885 | Gstt3 value_2 (mRNA-Seq, sample Day_6_JQ1): 14.4369 | Gyg value_2 (mRNA-Seq, sample Day_6_JQ1): 82.2854 | Hadh value_2 (mRNA-Seq, sample Day_6_JQ1): 56.1898 | Hand2 value_2 (mRNA-Seq, sample Day_6_JQ1): 110.598 | Hmmr value_2 (mRNA-Seq, sample Day_6_JQ1): 17.0843 | Id3 value_2 (mRNA-Seq, sample Day_6_JQ1): 1063.75 | Ildr2 value_2 (mRNA-Seq, sample Day_6_JQ1): 11.4416 | Kif2c value_2 (mRNA-Seq, sample Day_6_JQ1): 11.8118 | Kif4 value_2 (mRNA-Seq, sample Day_6_JQ1): 7.332 | Kif11 value_2 (mRNA-Seq, sample Day_6_JQ1): 10.8132 | Kif20b value_2 (mRNA-Seq, sample Day_6_JQ1): 7.299 | Kif22 value_2 (mRNA-Seq, sample Day_6_JQ1): 14.9542 | Lamb2 value_2 (mRNA-Seq, sample Day_6_JQ1): 41.1365 | Lhfp value_2 (mRNA-Seq, sample Day_6_JQ1): 371.966 | Lphn1 value_2 (mRNA-Seq, sample Day_6_JQ1): 20.1469 | Melk value_2 (mRNA-Seq, sample Day_6_JQ1): 7.467 | Mfge8 value_2 (mRNA-Seq, sample Day_6_JQ1): 379.144 | Mki67 value_2 (mRNA-Seq, sample Day_6_JQ1): 27.8603 | Mmp11 value_2 (mRNA-Seq, sample Day_6_JQ1): 36.1215 | Mras value_2 (mRNA-Seq, sample Day_6_JQ1): 15.4481 | Mrc2 value_2 (mRNA-Seq, sample Day_6_JQ1): 111.626 | Msx1 value_2 (mRNA-Seq, sample Day_6_JQ1): 5.962 | Ndc80 value_2 (mRNA-Seq, sample Day_6_JQ1): 8.604 | Nkd1 value_2 (mRNA-Seq, sample Day_6_JQ1): 16.9471 | Nuf2 value_2 (mRNA-Seq, sample Day_6_JQ1): 9.227 | Oat value_2 (mRNA-Seq, sample Day_6_JQ1): 213.454 | Osbpl5 value_2 (mRNA-Seq, sample Day_6_JQ1): 41.3593 | Osr1 value_2 (mRNA-Seq, sample Day_6_JQ1): 16.6329 | Pbx1 value_2 (mRNA-Seq, sample Day_6_JQ1): 48.4716 | Pld3 value_2 (mRNA-Seq, sample Day_6_JQ1): 190.597 | Plxdc2 value_2 (mRNA-Seq, sample Day_6_JQ1): 26.1768 | Prc1 value_2 (mRNA-Seq, sample Day_6_JQ1): 30.6759 | Ptgr1 value_2 (mRNA-Seq, sample Day_6_JQ1): 25.0296 | Pxmp4 value_2 (mRNA-Seq, sample Day_6_JQ1): 17.7124 | Pygb value_2 (mRNA-Seq, sample Day_6_JQ1): 42.1403 | Racgap1 value_2 (mRNA-Seq, sample Day_6_JQ1): 22.85 | Rarb value_2 (mRNA-Seq, sample Day_6_JQ1): 70.6683 | S100a6 value_2 (mRNA-Seq, sample Day_6_JQ1): 1608.42 | Scrn1 value_2 (mRNA-Seq, sample Day_6_JQ1): 7.911 | Sipa1l1 value_2 (mRNA-Seq, sample Day_6_JQ1): 28.6555 | Slit2 value_2 (mRNA-Seq, sample Day_6_JQ1): 14.8622 | Smc2 value_2 (mRNA-Seq, sample Day_6_JQ1): 19.557 | Smc4 value_2 (mRNA-Seq, sample Day_6_JQ1): 33.8803 | Snap47 value_2 (mRNA-Seq, sample Day_6_JQ1): 103.523 | Spc24 value_2 (mRNA-Seq, sample Day_6_JQ1): 8.494 | Spry1 value_2 (mRNA-Seq, sample Day_6_JQ1): 44.5222 | St5 value_2 (mRNA-Seq, sample Day_6_JQ1): 35.2195 | Tacc3 value_2 (mRNA-Seq, sample Day_6_JQ1): 18.1794 | Tfdp2 value_2 (mRNA-Seq, sample Day_6_JQ1): 10.5854 | Tinagl1 value_2 (mRNA-Seq, sample Day_6_JQ1): 326.013 | Tmem53 value_2 (mRNA-Seq, sample Day_6_JQ1): 17.4035 | Tmsb10 value_2 (mRNA-Seq, sample Day_6_JQ1): 1117.74 | Trim59 value_2 (mRNA-Seq, sample Day_6_JQ1): 27.2401 | Tro value_2 (mRNA-Seq, sample Day_6_JQ1): 7.307 | Trp53inp2 value_2 (mRNA-Seq, sample Day_6_JQ1): 99.8045 | Twist1 value_2 (mRNA-Seq, sample Day_6_JQ1): 19.9784 | Uhrf1 value_2 (mRNA-Seq, sample Day_6_JQ1): 16.7743 | Vgll3 value_2 (mRNA-Seq, sample Day_6_JQ1): 95.3643 | Wdr35 value_2 (mRNA-Seq, sample Day_6_JQ1): 9.874 | Wt1 value_2 (mRNA-Seq, sample Day_6_JQ1): 29.0084 | Zbtb7c value_2 (mRNA-Seq, sample Day_6_JQ1): 7.895 | number of genes upregulated during HSC activation (more than 900) that are suppressed (primary HSCs, days 3 and 6 vs day 1, JQ1 500 nM): more than 400 genes | induction of key marker genes Col1a1, Acta2, Col1a2 and Des during HSC activation (primary HSCs, JQ1 500 nM, mRNA-Seq and qRT-PCR): drastically abolished
